According to PubChem BioAssay AID248 (DTP/NCI, 2004):
Values joined by “and” are separate entries in the source; they are usually repeats but may differ in a detail not shown here. Equal values may be shown once. Inconclusive results and toxic doses are left out. Rule as the data show it: active = T/C of 150% or more; inactive = T/C below 125%.

Test system: L1210 leukemia ip in BDF1 mice, survival T/C
Test: NCI In Vivo Anticancer Drug Screen. Data for tumor model L1210 Leukemia (intraperitoneal) in B6D2F1 (BDF1) mice
Conditions: endpoint: mean survival time, higher = longer survival
Outline: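 Antitumor effect is assessed in tumor-bearing animals. Survival in the compound arm is compared with a vehicle-dosed control arm and expressed as their quotient.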

[1] = dose: 100.0 mg/kg/injection, schedule: Q01DX001 (ip), vehicle: saline
[2] = dose: 200.0 mg/kg/injection, schedule: Q01DX001 (ip), vehicle: saline
[3] = dose: 400.0 mg/kg/injection, schedule: Q01DX001 (ip), vehicle: saline
[4] = dose: 100.0 mg/kg/injection, schedule: Q04DX003 (ip), vehicle: Klucel (hydroxypropylcellulose) (HPC)
[5] = dose: 200.0 mg/kg/injection, schedule: Q04DX003 (ip), vehicle: Klucel (hydroxypropylcellulose) (HPC)
[6] = dose: 400.0 mg/kg/injection, schedule: Q04DX003 (ip), vehicle: Klucel (hydroxypropylcellulose) (HPC)
[7] = dose: 100.0 mg/kg/injection, schedule: Q01DX009 (ip), vehicle: Klucel (hydroxypropylcellulose) (HPC)
[8] = dose: 200.0 mg/kg/injection, schedule: Q01DX009 (ip), vehicle: Klucel (hydroxypropylcellulose) (HPC)
[9] = dose: 100.0 mg/kg/injection, schedule: Q04DX002 (ip), vehicle: Klucel (hydroxypropylcellulose) (HPC)
[10] = dose: 200.0 mg/kg/injection, schedule: Q04DX002 (ip), vehicle: Klucel (hydroxypropylcellulose) (HPC)
[11] = dose: 400.0 mg/kg/injection, schedule: Q04DX002 (ip), vehicle: Klucel (hydroxypropylcellulose) (HPC)
[12] = dose: 100.0 mg/kg/injection, schedule: Q04DX003 (ip), vehicle: saline with Tween-80
[13] = dose: 200.0 mg/kg/injection, schedule: Q04DX003 (ip), vehicle: saline with Tween-80
[14] = dose: 400.0 mg/kg/injection, schedule: Q04DX003 (ip), vehicle: saline with Tween-80
[15] = dose: 75.0 mg/kg/injection, schedule: Q01DX001 (ip), vehicle: saline
[16] = dose: 150.0 mg/kg/injection, schedule: Q01DX001 (ip), vehicle: saline

Measured: T/C

CCOC(=O)N1C(c2ccccc2)N(c2ccccc2)C(c2ccccc2)N1C(=O)OCC (centres undefined)
inactive: dose: 50.0 mg/kg/injection, schedule: Q01DX001 (ip), vehicle: saline 108 % of control | [1] 103 % of control | [2] 108 % of control | [3] 103 % of control

O=C(Nc1ccc(F)cc1)Nc1cc([N+](=O)[O-])ccc1F
inactive: [4] 117 % of control | [5] 102 % of control | [6] 101 % of control

CC1OC(n2ncc(=O)[nH]c2=O)C2OC(C)(C)OC2C1=O (centres undefined)
inactive: dose: 12.5 mg/kg/injection, schedule: Q01DX005 (ip), vehicle: distilled water + Tween-80 108 % of control | dose: 25.0 mg/kg/injection, schedule: Q01DX005 (ip), vehicle: distilled water + Tween-80 95 % of control | dose: 50.0 mg/kg/injection, schedule: Q01DX005 (ip), vehicle: distilled water + Tween-80 92 % of control | dose: 100.0 mg/kg/injection, schedule: Q01DX005 (ip), vehicle: distilled water + Tween-80 95 % of control | dose: 200.0 mg/kg/injection, schedule: Q01DX005 (ip), vehicle: distilled water + Tween-80 97 % of control

Cc1cc(C)cc(Cc2ccc3ccccc3c2)c1
inactive: dose: 50.0 mg/kg/injection, schedule: Q01DX001 (ip), vehicle: Klucel (hydroxypropylcellulose) (HPC) 109 % of control | dose: 100.0 mg/kg/injection, schedule: Q01DX001 (ip), vehicle: Klucel (hydroxypropylcellulose) (HPC) 98 % of control | dose: 200.0 mg/kg/injection, schedule: Q01DX001 (ip), vehicle: Klucel (hydroxypropylcellulose) (HPC) 96 % of control | dose: 400.0 mg/kg/injection, schedule: Q01DX001 (ip), vehicle: Klucel (hydroxypropylcellulose) (HPC) 90 % of control

CCCCNC(=O)Nc1cc(C)cc(C)n1
inactive: [7] 100 % of control | [4] 94 % of control | [8] 104 % of control | [5] 102 % of control | dose: 400.0 mg/kg/injection, schedule: Q01DX009 (ip), vehicle: Klucel (hydroxypropylcellulose) (HPC) 91 % of control | [6] 98 % of control

C1O[C@@H]1[C@@H]1CO1
inactive: dose: 10.5 mg/kg/injection, schedule: Q01DX015 (ip), vehicle: saline 110 % of control | dose: 18.0 mg/kg/injection, schedule: Q01DX015 (ip), vehicle: saline 110 % of control | dose: 44.0 mg/kg/injection, schedule: Q01DX001 (ip), vehicle: saline 111 % of control and 116 % of control
active: dose: 66.0 mg/kg/injection, schedule: Q01DX001 (ip), vehicle: saline 150 % of control | [1] 173 % of control | dose: 100.0 mg/kg/injection, schedule: Q01DX010 (ip), vehicle: water 167 % of control | dose: 200.0 mg/kg/injection, schedule: Q01DX010 (ip), vehicle: water 186 % of control | dose: 400.0 mg/kg/injection, schedule: Q01DX010 (ip), vehicle: water 189 % of control | dose: 600.0 mg/kg/injection, schedule: Q01DX010 (ip), vehicle: water 157 % of control

Cc1nc(N(C)CC(=O)O)ncc1C(=O)O
inactive: [9] 91 % of control | [10] 91 % of control | [11] 94 % of control

CC(C)(C)NC(=O)C1C2CC3OC(=O)C1C3C2 (centres undefined)
inactive: [12] 98 % of control | [13] 101 % of control and 90 % of control | [14] 101 % of control and 98 % of control

CN(C)CCCN1c2ccccc2Sc2ccccc21
inactive: dose: 4.6 mg/kg/injection, schedule: Q01DX009 (ip), vehicle: saline 98 % of control | dose: 9.3 mg/kg/injection, schedule: Q01DX009 (ip), vehicle: saline 105 % of control | dose: 9.37 mg/kg/injection, schedule: Q01DX009 (ip), vehicle: saline 96 % of control | dose: 18.0 mg/kg/injection, schedule: Q01DX001 (ip), vehicle: saline 107 % of control | dose: 18.0 mg/kg/injection, schedule: Q01DX009 (ip), vehicle: saline 112 % of control | dose: 18.0 mg/kg/injection, schedule: Q04DX003 (ip), vehicle: saline 116 % of control | dose: 18.75 mg/kg/injection, schedule: Q01DX009 (ip), vehicle: saline 104 % of control and 108 % of control | dose: 18.75 mg/kg/injection, schedule: Q04DX003 (ip), vehicle: saline 115 % of control | dose: 37.0 mg/kg/injection, schedule: Q01DX001 (ip), vehicle: saline 110 % of control | dose: 37.0 mg/kg/injection, schedule: Q01DX009 (ip), vehicle: saline 112 % of control | dose: 37.0 mg/kg/injection, schedule: Q04DX003 (ip), vehicle: saline 115 % of control | dose: 37.5 mg/kg/injection, schedule: Q01DX009 (ip), vehicle: saline 98 % of control and 122 % of control | dose: 37.5 mg/kg/injection, schedule: Q04DX003 (ip), vehicle: saline 102 % of control | [15] 105 % of control | dose: 75.0 mg/kg/injection, schedule: Q01DX009 (ip), vehicle: saline 122 % of control | dose: 75.0 mg/kg/injection, schedule: Q04DX003 (ip), vehicle: saline 102 % of control and 116 % of control

O=C(CCN1CC1)Oc1ccc(Cl)cc1
inactive: dose: 100.0 mg/kg/injection, schedule: Q01DX001 (ip), vehicle: saline with Tween-80 97 % of control | dose: 200.0 mg/kg/injection, schedule: Q01DX001 (ip), vehicle: saline with Tween-80 95 % of control | dose: 400.0 mg/kg/injection, schedule: Q01DX001 (ip), vehicle: saline with Tween-80 95 % of control

Cc1ccc2c(c1)C(=O)CCC2
inactive: dose: 177.0 mg/kg/injection, schedule: Q01DX001 (ip), vehicle: saline 94 % of control | [2] 95 % of control | dose: 266.0 mg/kg/injection, schedule: Q01DX001 (ip), vehicle: saline 94 % of control | [3] 94 % of control and 95 % of control | dose: 600.0 mg/kg/injection, schedule: Q01DX001 (ip), vehicle: saline 96 % of control

C[N+](C)(CC(=O)Nc1ccc(Cl)cc1)Cc1ccc2c(c1)CCCC2
inactive: dose: 6.25 mg/kg/injection, schedule: Q04DX002 (ip), vehicle: saline with Tween-80 90 % of control | dose: 12.5 mg/kg/injection, schedule: Q04DX002 (ip), vehicle: saline with Tween-80 90 % of control | dose: 25.0 mg/kg/injection, schedule: Q04DX002 (ip), vehicle: saline with Tween-80 90 % of control and 91 % of control

O=C(CBr)OCS(=O)(=O)O
inactive: [15] 102 % of control | [16] 96 % of control | dose: 300.0 mg/kg/injection, schedule: Q01DX001 (ip), vehicle: saline 100 % of control

O=C(Nc1ccccc1)c1ccco1
inactive: dose: 50.0 mg/kg/injection, schedule: Q01DX009 (ip), vehicle: Klucel (hydroxypropylcellulose) (HPC) 102 % of control | [7] 102 % of control | [9] 102 % of control | [8] 100 % of control | [10] 98 % of control | [11] 91 % of control

O=C(Nc1cccc(O)c1)Nc1cccc(Cl)c1Cl
inactive: dose: 100.0 mg/kg/injection, schedule: Q01DX009 (ip), vehicle: saline with Tween-80 91 % of control | dose: 200.0 mg/kg/injection, schedule: Q01DX009 (ip), vehicle: saline with Tween-80 92 % of control | dose: 400.0 mg/kg/injection, schedule: Q01DX009 (ip), vehicle: saline with Tween-80 94 % of control

CC(C)/C=N\O
inactive: [12] 104 % of control | [13] 123 % of control | [14] 109 % of control

CCC1N(C)CCCN1C
inactive: [12] 97 % of control | [13] 95 % of control

O=C(NO)c1ccccc1F
inactive: [1] 97 % of control | [2] 110 % of control | [3] 93 % of control

Nc1nc(CCl)nc(Nc2ccccc2)n1
inactive: [7] 105 % of control | [4] 104 % of control | [8] 86 % of control | [5] 98 % of control

CN(C)C(=O)Sc1ccc([N+](=O)[O-])cc1Cl
inactive: [4] 107 % of control | [5] 101 % of control | [6] 101 % of control

BrC1C=CC=CN1C/C=C/CN1C=CC=CC1Br (centres undefined)
inactive: [15] 96 % of control | [16] 97 % of control

COc1ccc(C(C)=O)c(O)c1OC
inactive: [1] 101 % of control | [2] 101 % of control | [3] 98 % of control

O=C1CCCCc2c1ccc(O)c2[N+](=O)[O-]
inactive: dose: 50.0 mg/kg/injection, schedule: Q01DX009 (ip), vehicle: saline with Tween-80 88 % of control

CCC1SC(=S)N(C(=O)c2ccc([N+](=O)[O-])cc2)C1CC (centres undefined)
inactive: dose: 25.0 mg/kg/injection, schedule: Q04DX002 (ip), vehicle: Klucel (hydroxypropylcellulose) (HPC) 111 % of control | dose: 50.0 mg/kg/injection, schedule: Q04DX002 (ip), vehicle: Klucel (hydroxypropylcellulose) (HPC) 95 % of control
